The results in this text go back to US10167276B2, “Compounds and methods for inhibiting JAK” (Dizal (Jiangsu) Pharmaceutical Co., Ltd., priority 2015, dated 2019).

The subject of one data set is PC-9 tumor xenografts. Briefly: In vivo efficacy with gefitinib in the PC-9 xenograft model. Further details: species or system mice. Here is the method:
(§1) Tumor volume was measured twice a week.

The test system of data set [1] is pSTAT3 (Y705). Briefly: pSTAT3 levels in LG1049 tumor lysates (Western Blot). It counts as in vivo, mice. Conditions: Example 32 25 mg/kg BID, 5 days of treatment, 4H after the final dose. A general note: Immunoblotting shows a protein as a band on a membrane.
Excerpt: LG1 049 tumor fragments were implanted subcutaneously in female NSG mice (JAX Stock No. 005557). Once tumor volumes reached ˜125-275 mm^3, mice were randomized into 5 groups (10 mice/group, average tumor volume 189 mm^3, range 138-253 mm^3).
Data set [2] relates to NCI-H1650 tumor xenografts. The experiment in a line: In vivo efficacy with gefitinib in the H1650 xenograft model. Further details: species or system mice. Conditions: Example 32 25 or 50 mg/kg BID + gefitinib 6.25 mg/kg QD, oral, 21 days. Here is the method: as §1
(§2) Twenty-three days after cell implantation, the mice were randomized into 6 groups (9 mice/group, average tumor volume 257 mm^3, range 205-303 mm^3). […] Drug levels in plasma were measured by LC/MS, using a Linear Ion Trap Quadrupole LC/MS/MS Mass Spectrometer (QTRAP 5500 model 1024945-BB, AB Sciex Instruments), with separation on a Waters Xbridge C18 column.

Data set [3] deals with NCI-H1975 tumor xenografts. Briefly: In vivo efficacy with osimertinib in the H1975 xenograft model. Further details: species or system mice. Conditions: oral, 18 days. The method, then: as §1
NCI-H1975 cells (a human NSCLC cell line with L858R and T790M mutations in the EGFR gene) tumor cells were implanted subcutaneously in female NCr nude mice (Taconic Laboratories), 3×10^6 cells/mouse.

Data set [4] has as its system STAT3 phosphorylation in NCI-H1975 cells. The experiment in a line: Cellular pSTAT3 assay in NCI-H1975 cells. It counts as cell-based. Conditions: Homo sapiens, 2 hours with compound. The gist of the method: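 NCI-H1975 cells (RPMI, 10% FBS) were treated with compound for 2 hours at 37° C., then lysed. Phospho-STAT3 in lysates was quantified by sandwich ELISA (STAT3 capture, phospho-STAT3 detection, HRP secondary, TMB), read at 450 nm.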

In data set [5] the test system is pSTAT3 (Y705). Briefly: pSTAT3 (Y705) levels in PC-9 tumor lysates (Western Blot). It counts as in vivo, mice. Conditions: increasing dose of Example 32 (12.5, 50 mg/kg BID) with gefitinib; 2, 8 and 24 hours after the AM dose, last day.
Data set [6] has as its system LG1049 non-small cell lung cancer PDX tumor xenografts. The experiment in a line: In vivo efficacy with osimertinib in the LG1049 xenograft PDX model. The method, then: LG1049 non-small cell lung cancer PDX tumor xenografts were grown subcutaneously in female NSG mice. […] Tumor volume was measured twice a week.
(§3) LG1 049 tumor fragments were implanted subcutaneously in female NSG mice (JAX Stock No. 005557).

In data set [7] the test system is pSTAT3 (Y705). Briefly: pSTAT3 (Y705) levels in NCI-H1975 tumor lysates (sandwich ELISA). It counts as in vivo, mice. Conditions: increasing dose of Example 32 (12.5 to 50 mg/kg BID), one day of treatment. Here is the method: (§4) NCI-H1975 cells (a human NSCLC cell line with L858R and T790M mutations in the EGFR gene) tumor cells were implanted subcutaneously in female NCr nude mice (Taconic Laboratories), 3×10^6 cells/mouse. […] Drug levels in plasma were measured by LC/MS, using a Linear Ion Trap Quadrupole LC/MS/MS Mass Spectrometer (QTRAP 5500 model 1024945-BB, AB Sciex Instruments), with separation on a Waters Xbridge C18 column.
Background: An ELISA detects its analyte on a solid surface through an enzyme-linked reagent.

Data set [8] concerns pSTAT3 (Y705). Briefly: pSTAT3 levels in NCI-H1650 tumor lysates (Western Blot). It counts as in vivo, mice. Conditions: Example 32 as single agent and in combination with gefitinib, after one day of treatment. Here is the method: as §2
Data set [9] is described as follows: Drug levels in plasma by LC/MS, NCI-H1975 tumor bearing mice. It counts as in vivo. Conditions: increasing dose of Example 32 (12.5 to 50 mg/kg BID), one day of treatment. Here is the method:
as §4

The test system of data set [10] is NCI-H1975 tumor xenografts. The experiment in a line: In vivo efficacy of intermittent Example 32 dosing schedules with osimertinib in the H1975 xenograft model. Conditions: oral. On the set-up: species or system mice. The method, then:
as §1
NCI-H1975 cells (a human NSCLC cell line with L858R and T790M mutations in the EGFR gene), were implanted subcutaneously in female NCr nude mice (Taconic Laboratories), 3×10^6 cells/mouse.

The subject of the next data set is pEGFR. Briefly: pEGFR levels in LG1049 tumor lysates (Western Blot). It counts as in vivo, mice. Conditions: osimertinib 25 mg/kg QD, 5 days of treatment, 4H after the final dose.
Excerpt: as §3

On to `COc1nn(C)cc1Nc1nccc(-c2c[nH]c3c(NC(=O)[C@@H](C)N4CCN(C)CC4)cccc23)n1` [Example 32, (2R)-N-(3-{2-[(3-methoxy-1-methyl-1H-pyrazol-4-yl)amino]pyrimidin-4-yl}-1H-indol-7-yl)-2-(4-methylpiperazin-1-yl)propanamide], for which, in the data set with PC-9 tumor xenografts (Example 32 12.5 or 50 mg/kg BID + gefitinib 6.25 mg/kg QD, oral, 21 days), the “antitumor activity in combination with gefitinib, compared to gefitinib” value was “enhanced the antitumor activity of gefitinib”. In addition, the “antitumor activity in combination with gefitinib, compared to single agent gefitinib” value was “greater activity than single agent gefitinib, but did not quite achieve statistical significance” with PC-9 tumor xenografts (gefitinib + 12.5 mg/kg Example 32 daily); “greater activity than single agent gefitinib, but did not quite achieve statistical significance” with PC-9 tumor xenografts (gefitinib + 50 mg/kg Example 32 dosed 2 days on/5 days off); “enhanced the antitumor activity of gefitinib” in data set [2]. Further, the “pSTAT3 knockdown in tumors” value with pSTAT3 (Y705) [1] was “robust knockdown”; with pSTAT3 (Y705) [5], “dose dependent increase in the duration of pSTAT3 knockdown”; in the data set on pSTAT3 (Y705) [7], “dose dependent increase in pSTAT3 knockdown”; in the data set with pSTAT3 (Y705) [8], “Knockdown of pSTAT3 was observed”. The “antitumor activity as a single agent” value is recorded as “only weak antitumor activity relative to vehicle control treatment” in data set [3] (Example 32 12.5, 25, 50 mg/kg BID); “no significant activity relative to vehicle control treatment” in [6] (Example 32 25 mg/kg BID, oral, 18 days); “no significant activity relative to vehicle control treatment” in data set [10] (Example 32 50 mg/kg BID, 19 days). Besides, the “antitumor activity in combination with osimertinib, compared to osimertinib alone” value is given as “enhanced the antitumor activity of osimertinib” in data set [3] (Example 32 12.5-50 mg/kg BID + osimertinib 2.5 mg/kg QD) and “enhanced the antitumor activity of osimertinib” in data set [10] (Example 32 12.5-50 mg/kg BID, continuous or intermittent schedules + osimertinib 2.5 mg/kg QD). The IC50 in data set [4] worked out at 161 nM. For the same compound, the “tumor regression in combination with osimertinib, compared to osimertinib alone” value in [6] (Example 32 25 mg/kg BID + osimertinib 25 mg/kg QD, oral, 28 days) is listed as “enhanced the tumor regression induced by osimertinib”. For the same compound, the “body weight, single agent treatment” value in data set [6] (mouse, in vivo) is listed as “significant weight loss”. Also, in data set [9], the “level of Example 32 in plasma” value is on record as “increasing level of Example 32 in plasma”.

For `C=CC(=O)Nc1cc(Nc2nccc(-c3cn(C)c4ccccc34)n2)c(OC)cc1N(C)CCN(C)C` [osimertinib, reference compound], the “pEGFR knockdown in tumors” value with pEGFR is listed as “robust knockdown”. For the same compound, the “body weight, single agent treatment” value in data set [6] (LG1049 tumor bearing mice, weight loss stated to depend on tumor growth) was “lack of significant weight loss”.

As usually defined, the IC50 is the point on the concentration scale where inhibition reaches its midpoint.
